In PMC10295897, “A Novel MDM2-Binding Chalcone Induces Apoptosis of Oral Squamous Cell Carcinoma” (Biomedicines, 2023):
Read-outs that look alike come from different tables or passages of the source.

How the values were obtained:
[1] = system: HCT-116 (colon cancer); assay: MTT cell viability assay, HCT-116; assay type: cell-based
Method: (§1) The viability of SCC cell lines, HT-29, HCT-116, HEP2G and primary human fibroblast cells was evaluated using the MTT assay as in [26]. Briefly, the cells were grown in duplicates in 96-well plates (5 × 10^3 cells/well) until confluence. Then, the medium was removed, fresh medium was added, and the cells were returned to the incubator in the presence of different compounds. DMSO at the same concentrations was used as a 100% cell viability control. After 48 h, the cells were incubated with 5 mg/mL MTT reagent (3-(4,5-dimethyl-2-thiazolyl)-2,5-diphenyl-2-H-tetrazolium bromide) (Sigma-Aldrich Co., St. Louis, MO, USA) for 3.5 h. After that, formazan crystals were dissolved in MTT solvent solution (DMSO/methanol 1:1 v/v), and the absorbance at 560 nm was evaluated using an EPOCH microplate spectrophotometer (BioTek Instruments, Winooski, VT, USA) with the background absorbance at 670 nm subtracted. […]
(§2) The data are presented as means ± SD. […] The selectivity index was calculated as SI = IC50 of the compound in normal oral fibroblast cells/IC50 of the same compound for each cancer cell line (SCC-4, SCC-9, SCC-25, HCT-116, HT29 and HEP2G), and the mean was calculated when indicated.

[2] = system: HT29 (adenocarcinoma); assay: MTT cell viability assay, HT29; assay type: cell-based
Method: (§3) The viability of SCC cell lines, HT-29, HCT-116, HEP2G and primary human fibroblast cells was evaluated using the MTT assay as in [26]. Briefly, the cells were grown in duplicates in 96-well plates (5 × 10^3 cells/well) until confluence. Then, the medium was removed, fresh medium was added, and the cells were returned to the incubator in the presence of different compounds. DMSO at the same concentrations was used as a 100% cell viability control. After 48 h, the cells were incubated with 5 mg/mL MTT reagent (3-(4,5-dimethyl-2-thiazolyl)-2,5-diphenyl-2-H-tetrazolium bromide) (Sigma-Aldrich Co., St. Louis, MO, USA) for 3.5 h. After that, formazan crystals were dissolved in MTT solvent solution (DMSO/methanol 1:1 v/v), and the absorbance at 560 nm was evaluated using an EPOCH microplate spectrophotometer (BioTek Instruments, Winooski, VT, USA) with the background absorbance at 670 nm subtracted. Each of the six compounds was tested at six or seven different concentrations, ranging from 0.3 µM to 200 µM in cancer cell lines (SCC-4, SCC-9 and SCC-25) and 0.3 µM to 200 µM in primary normal human gingival fibroblasts. Controls (carboplatin, nutlin 3a) were tested at six or seven different concentrations ranging from 0.05 µM to 1000 µM in cancer cells and normal cells, depending on the compound.
(§4) The data are presented as means ± SD. IC values for the MTT assays were obtained by nonlinear regression using the […] 5.0 program (Intuitive Software for Science, San Diego, CA, USA) from at least three independent experiments. A dose–response (inhibitor) vs. response curve using the least squares method was used to determine the IC50, SD, and R^2 of the data. The selectivity index was calculated as SI = IC50 of the compound in normal oral fibroblast cells/IC50 of the same compound for each cancer cell line (SCC-4, SCC-9, SCC-25, HCT-116, HT29 and HEP2G), and the mean was calculated when indicated.

[3] = system: SCC4 cells; assay: MTT cell viability assay, SCC4 cells; assay type: cell-based, human
Method: (§5) Human SCC-4, SCC-9, and SCC-25 cells derived from a human oral tongue SCC (squamous cell carcinoma) were obtained from the ATCC (CRL-1624, CRL-1629, and CRL-1628, respectively) and maintained in 1:1 DMEM/F12 (Dulbecco’s modified Eagle medium and Ham’s F12 medium; Gibco (Thermo Fisher, Waltham, MA, USA)) supplemented with 10% (v/v) FBS (fetal bovine serum; Invitrogen, Thermo Fisher, Waltham, MA, USA) and 400 ng/mL hydrocortisone (Sigma-Aldrich Co., St. Louis, MO, USA). Primary normal human gingival fibroblasts were obtained from the ATCC (PCS-201-018; HGF) and maintained in DMEM supplemented with 10% (v/v) FBS and were used in a maximum of six passages. The cells were grown in a humidified environment containing 5% CO2 at 37 °C. For all biological experiments, the compounds and control nutlin 3a were solubilized in 100% DMSO (all Sigma-Aldrich) to a final concentration of 10 mM. Carboplatin stock was prepared in water (Fauldcarbo®; LibbsFarmacêutica, São Paulo, SP, Brazil) and was used as a standard anticancer compound.
as §3, §4

[4] = system: SCC9 cells; assay: MTT cell viability assay, SCC9 oral cancer cells; assay type: cell-based, human; conditions: for IC50: Homo sapiens, SCC-9, 48 h, MTT
Method: as §5, §3, §4
Initially, the six chalcones (1a–f) were submitted to the MTT assay to evaluate their cytotoxicity. The assay was performed using the oral cancer cell line SCC9, and the results were analyzed by a non-linear regression curve to determine the value of the half maximal inhibitory concentration (IC50). As controls, known chemotherapeutic agents were used, namely carboplatin, routinely used in the treatment of oral cancer, and doxorubicin, widely used for other types of cancers.

[5] = Solubility observed during in vitro testing; assay type: physicochemical; conditions: in vitro cytotoxicity testing
[6] = system: HEP2G (hepatocarcinoma); assay: MTT cell viability assay, HEP2G; assay type: cell-based; conditions: 48 h
Method: as §1, §2

[7] = system: Primary Gingival Fibroblast (HGF); assay: MTT cell viability assay, primary normal gingival fibroblasts; assay type: cell-based, human; conditions: Homo sapiens, Fibroblast, 48 h
Method: as §5, §3, §4

[8] = system: SCC9 cells; assay: Annexin V-FITC/PI apoptosis flow cytometry; assay type: cell-based, human; conditions: SCC9, 2 × IC50, 48 h
Method: Cells of the SCC9 cell line were plated in 6-well plates (5 × 10^5 cells/well), trypsinized 48 h after treatment, labeled using the Annexin V-FITC Apoptosis Detection Kit according to the manufacturer’s protocol (#BMS500FI/300, Invitrogen), and analyzed by FACScalibur flow cytometry as in [35]. Furthermore, 5 × 10^4 SCC-9 cells were plated in a 24-well plate containing 1 mL of DMEM/F12 with 10% FBS per well. CellEvent™ Caspase-3/7 Reagent (#R37111, Invitrogen) was diluted in a culture medium according to the manufacturer’s instructions. […] The cells were analyzed by flow cytometry after 48 h of treatment.

[9] = system: SCC9 cells; assay: Cell cycle and SubG1 analysis (PI flow cytometry); assay type: cell-based, human; conditions: SCC9, 2 × IC50, 48 h, PI staining
Method: To evaluate the action of compound 1f on the cell cycle and DNA fragmentation, SCC9 cell line cells were plated in a 6-well plate (5 × 10^5 cells/well). After 48 h of treatment, the cells were trypsinized and stained with propidium iodide (75 µM) in the presence of NP-40. The DNA content was analyzed by collecting 10,000 events using a FACScalibur flow cytometer. The data were analyzed using CellQuest (BD Biosciences, Franklin Lakes, NJ, USA) and FlowJo (Tree Star Inc., Ashland, OR, USA) software as in [34].

In the case of `Cc1cccc(C)c1-n1cc(/C=C/C(=O)c2ccccc2N)nn1` [1f, (E)-1-(2-Aminophenyl)-3-(1-(2,6-dimethylphenyl)-1H-1,2,3-triazol-4-yl)prop-2-en-1-one], the IC50 ([1]; Homo sapiens, HCT-116, 48 h, MTT) is reported as 3.99 µM, the “HCT-116 S.I.” value ([1]; IC50 HGF / IC50 HCT-116) is reported as 7.41 and the IC50 ([2]; Homo sapiens, HT-29, 48 h, MTT) is reported as 3.92 µM. For the same compound, the “HT29 S.I.” value ([2]; IC50 HGF / IC50 HT29) was 7.55, the IC50 ([3]; Homo sapiens, SCC-4, 48 h, MTT) was 4.73 µM and the “SCC4 S.I.” value ([3]; selective index = IC50 HGF / IC50 SCC4) was 6.25. The IC50 ([4]; 48 h, read-out: SCC9 IC50) was 3.87 µM, the IC50 ([4]; SCC9, 48 h, read-out: IC50) was 3.87 µM and the “SCC9 S.I.” value ([4]; selective index = IC50 HGF / IC50 SCC9) was 7.63. The “solubility (in words)” value [5] was “highly soluble”, the IC50 [6] was 39.4 µM and the IC50 [7] was 29.6 µM. The phosphatidylserine exposure [8] was 43.0%, the “cells in G2/M phase” value [9] was 44.0% and the “fragmentation of DNA (Sub-G1 DNA-content)” value [9] was 23.3%.
